Experiment [1] has as its system MCF7 human xenograft model. The experiment is described as follows: Tumor growth inhibition in MCF7 human xenograft model. The format is in vivo, Balb/c female nude mouse. To be noted: Formula (I) 30 mg/kg orally once a day 21 days, fulvestrant 5 mg/mouse subcutaneously once a week 3 weeks. Here is the method:
1. Tumor Inoculating and Grouping
Estrogen was injected subcutaneously on one day before animal inoculation, twice a week, and 40 μg/20 μL for each time (estrogen specification: 4 mg/2 mL) until the experiment was ended. MCF7 cells resuspended by a serum-free medium were inoculated subcutaneously on the right rib of a Balb/c female nude mouse at 1.5×10^7+matrigel/0.2 mL (cell: matrigel=1:1). While the tumor growed to a volume mean value of 163 mm^3, it was grouped and administered. The group of the compound of Formula (I) was administered orally once a day at an dose of 30 mg/kg for 21 consecutive days; the group of the fulvestrant was administered subcutaneously once a week, 5 mg per animal, for 3 consecutive weeks; and while the compound of Formula (I) was used in combination with the fulvestrant, the same administration mode was used as while used alone.
2. Measurement and Experimental Indicator of Tumor
The tumor volume was measured twice a week with a vernier caliper, the long diameter and the short diameter of the tumor were measured, and its volume calculation formula is: volume=0.5×long diameter×short diameter^2. The relative tumor volume RTV and relative tumor volume increase ratio (T/C) were calculated according to measurement results. […]

The test system of experiment [2] is MCF7. The experiment is described as follows: Cell proliferation detection using BrdU method (MCF7). The following applies: Homo sapiens, 48 hours, fixed-ratio combination 640:3.2 nM series, concentration axis = compound of Formula (I), read-out: Cytological activity on MCF7 in vitro (IC50). The format is cell-based.
Description: Experimental method: Cell proliferation detection using BrdU method (BrdU cell proliferation test kit, PerkinElmer Company) • 1. Reagent and compound preparation • 1.1. Preparation of 1-fold washing solution:
A washing solution with a mother liquor concentration of 25 times was diluted into 1-fold washing solution with ultrapure water. • 1.2. Preparation of 1-fold detection antibody solution:
A BrdU-Eu detection antibody with a mother liquor concentration of 200 times was diluted into 1-fold detection antibody solution with a detection antibody diluent. • 1.3. 100-fold BrdU labeling solution:
A BrdU stock solution with a mother liquor concentration of 1000 times was diluted into 100-fold BrdU labeling solution with a culture medium corresponding to cells. • 1.4. […]
MCF7 medium: MEM+10% FBS+1% bispecific antibody+10 μg/mL human recombinant insulin • 2. […] Then resuspended with a corresponding culture medium, counted and adjustment-inoculated in a 96-well plate, the MCF7 cells were inoculated according to 8000 cells/well/100 μL, placed and cultured in a 37° C. cell incubator, and after the cells were adhered to a wall, it was replaced with a serum-free medium. • 2.2. […]
• 2.3. […] 200 μL of time-resolved immunofluorescence induction solution was added per well, and incubated at the room temperature for 15 minutes, and the fluorescence value (Flu value) was detected by a microplate reader. • 3.

For orientation: IC50 means the concentration at which inhibition is half-maximal. Regarding `C[C@]12CC[C@@H]3c4ccc(O)cc4C[C@@H](CCCCCCCCC[S+]([O-])CCCC(F)(F)C(F)(F)F)[C@H]3[C@@H]1CC[C@@H]2O` (stereo partly drawn) [Fulvestrant, fulvestrant], the “TGI(%)” value in experiment [1] (combination same modes) is 55.9%. The “Tumor volume at the end of administration” value in experiment [1] (mean ± standard error, start about 163 mm^3, solvent control 468 ± 37) is given as 216 ± 44 mm^3. Also, the IC50 in experiment [2] stood at 220 pM.

The record behind these values is patent publication US20240075032A1, “A Pharmaceutical Composition for Treating Cancer” (XUANZHU BIOPHARMACEUTICAL CO., LTD., priority 2020, published 2024).
